PubChem BioAssay (NCI)
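48-hour exposure; five concentrations; linearly interpolated endpoints. TGI: total growth inhibition.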

Key:
Assay in all cases: growth of human tumour cells (NCI), 48 h
[1] = system: SK-MEL-5 melanoma
[2] = system: CCRF-CEM leukemia
[3] = system: OVCAR-8 ovarian
[4] = system: HOP-92 NSCLC
[5] = system: NCI-H522 lung
[6] = system: BT-549 breast
[7] = system: HCC-2998 colon
[8] = system: CAKI-1 renal
[9] = system: RPMI-8226 leukemia
[10] = system: A498 renal
[11] = system: TK-10 renal
[12] = system: KM12 colon
[13] = system: SF-268 CNS
[14] = system: HOP-62 NSCLC
[15] = system: SNB-75 CNS
[16] = system: OVCAR-5 ovarian
[17] = system: OVCAR-3 ovarian
[18] = system: SF-539 CNS
[19] = system: ACHN renal
[20] = system: K-562 leukemia
[21] = system: MDA-MB-231 breast
[22] = system: A549 NSCLC
[23] = system: HT29 colon
[24] = system: LOX IMVI melanoma
[25] = system: IGROV1 ovarian
[26] = system: DU-145 prostate
[27] = system: UACC-257 melanoma
[28] = system: T-47D breast
[29] = system: PC-3 prostate
[30] = system: SK-MEL-2 melanoma
[31] = system: MDA-MB-435
[32] = system: OVCAR-4 ovarian
[33] = system: HCT-15 colon
[34] = system: SN12C renal
[35] = system: MCF7 breast
[36] = system: SW-620 colon
[37] = system: NCI-H23 lung
[38] = system: MOLT-4 leukemia
[39] = system: U251 CNS
[40] = system: COLO 205 colon
[41] = system: HS 578T breast
[42] = system: SK-MEL-28 melanoma
[43] = system: NCI/ADR-RES ovarian
[44] = system: UO-31 renal
[45] = system: MDA-N
[46] = system: SNB-19 CNS
[47] = system: NCI-H460 lung
[48] = system: MALME-3M melanoma
[49] = system: EKVX NSCLC
[50] = system: RXF 393 renal
[51] = system: M14 melanoma
[52] = system: NCI-H226 lung
[53] = system: HCT-116 colon
[54] = system: 786-0 renal
[55] = system: HL-60(TB) leukemia
[56] = system: UACC-62 melanoma

SMILES: COC(=O)c1cn(CC(O)CCl)nn1 (configuration not stated)
- TGI [1]: > 100 µM
- TGI [2]: > 100 µM
- TGI [3]: > 100 µM
- TGI [4]: > 100 µM
- TGI [5]: > 100 µM
- TGI [6]: > 100 µM
- TGI [7]: > 100 µM
- TGI [8]: > 100 µM
- TGI [9]: > 100 µM
- TGI [10]: > 100 µM
- TGI [11]: > 100 µM
- TGI [12]: > 100 µM
- TGI [13]: > 100 µM
- TGI [14]: > 100 µM
- TGI [15]: > 100 µM
- TGI [16]: > 100 µM
- TGI [17]: > 100 µM
- TGI [18]: > 100 µM
- TGI [19]: > 100 µM
- TGI [20]: > 100 µM
- TGI [21]: > 100 µM
- TGI [22]: > 100 µM
- TGI [23]: > 100 µM
- TGI [24]: > 100 µM
- TGI [25]: > 100 µM
- TGI [26]: > 100 µM
- TGI [27]: > 100 µM
- TGI [28]: > 100 µM
- TGI [29]: > 100 µM
- TGI [30]: > 100 µM
- TGI [31]: > 100 µM
- TGI [32]: > 100 µM
- TGI [33]: > 100 µM
- TGI [34]: > 100 µM
- TGI [35]: > 100 µM
- TGI [36]: > 100 µM
- TGI [37]: > 100 µM
- TGI [38]: > 100 µM
- TGI [39]: > 100 µM
- TGI [40]: > 100 µM
- TGI [41]: > 100 µM
- TGI [42]: > 100 µM
- TGI [43]: > 100 µM
- TGI [44]: > 100 µM
- TGI [45]: > 100 µM
- TGI [46]: > 100 µM
- TGI [47]: > 100 µM
- TGI [48]: > 100 µM
- TGI [49]: > 100 µM
- TGI [50]: > 100 µM
- TGI [51]: > 100 µM

SMILES: Cc1nc2c(cc1OCc1ccccc1)C(=O)C1=C(C2=O)C2OC(=O)CC2OC1(C)C (configuration not stated)
- TGI [1]: 2.61 µM
- TGI [2]: 0.451 µM
- TGI [3]: 12.3 µM
- TGI [4]: 1.42 µM
- TGI [5]: 0.387 µM
- TGI [6]: 1.88 µM
- TGI [7]: 1.91 µM
- TGI [8]: 1.67 µM
- TGI [9]: > 100 µM
- TGI [10]: 3.02 µM
- TGI [11]: 2.75 µM
- TGI [12]: 2 µM
- TGI [52]: 2.98 µM
- TGI [14]: 2.87 µM
- TGI [15]: 3.94 µM
- TGI [53]: 1.04 µM
- TGI [54]: 1.07 µM
- TGI [16]: 2.16 µM
- TGI [18]: 2.04 µM
- TGI [55]: 0.371 µM
- TGI [19]: 1.86 µM
- TGI [21]: 1.51 µM
- TGI [22]: 21.2 µM
- TGI [23]: 1.41 µM
- TGI [24]: 0.475 µM
- TGI [25]: 1.31 µM
- TGI [26]: 3.09 µM
- TGI [27]: 1.93 µM
- TGI [28]: 1.23 µM
- TGI [29]: 1.8 µM
- TGI [31]: 1.8 µM
- TGI [32]: 1.94 µM
- TGI [33]: 0.634 µM
- TGI [34]: 0.443 µM
- TGI [35]: 0.339 µM
- TGI [37]: 2.32 µM
- TGI [38]: 87.9 µM
- TGI [39]: 2.14 µM
- TGI [40]: 1.15 µM
- TGI [41]: 0.583 µM
- TGI [42]: 1.14 µM
- TGI [43]: 28.9 µM
- TGI [44]: 3.24 µM
- TGI [45]: 1.75 µM
- TGI [46]: 5.65 µM
- TGI [56]: 0.322 µM
- TGI [47]: 2.9 µM
- TGI [48]: 2.25 µM
- TGI [49]: 3.63 µM
- TGI [50]: 1.64 µM
- TGI [51]: 1.77 µM
